According to paper PMC6918900, “Concentration-Dependent Activity of Hydromethylthionine on Cognitive Decline and Brain Atrophy in Mild to Moderate Alzheimer’s Disease” (Journal of Alzheimer's Disease, 2019):

Tests used:
[1] = tested on: patients with mild to moderate Alzheimer's disease; assay: ADAS-cog11 change over 65 weeks by plasma exposure; type: in vivo, human; conditions: for ADAS-cog Difference ± SEM: split by 8 mg/day Cmax,ss median
From the text: (§1) Pharmacokinetic analyses were undertaken using plasma concentration data from patients who participated in either of two completed Phase III trials which have been described previously [[35, 36]]. In brief, the first (TRx-237-015) was a 15-month study which recruited 890 patients from 115 sites across 16 countries in EU, North America, Asia, and Russia. Patients had to be <90 years of age and have a diagnosis of mild to moderate probable AD according to National Institute of Aging (NIA) and Alzheimer’s Association (AA) criteria and a Mini-Mental State Examination (MMSE) score of 14–26 inclusive and with a Clinical Dementia Rating (CDR) total score of 1 or 2. The second study (TRx-237-005) was an 18-month trial which recruited 800 patients from 108 sites in Canada, United States, Australia, and Europe. Patients had to meet the same age and diagnosis criteria, except that they were required to have a MMSE score of 20–26 inclusive and a CDR total score of 0.5 or 1.0. Concomitant use of AChEIs or memantine (or both) was permitted in both studies provided this was at a stable dose for at least 18 weeks before randomization. Concomitant use of serotonergic antidepressant, antipsychotic (except clozapine or olanzapine), and sedative medications was also permitted at stable doses where clinically feasible. Patients were randomly assigned to receive LMTM at doses of 250, 150, or 8 mg/day in Study 015 and doses of 200 or 8 mg/day in Study TRx-237-005. Randomization in both studies was stratified according to geographical region, use of AD-labelled co-medications, and severity of AD. The co-primary outcomes in both studies were the Alzheimer’s Disease Assessment Scale–cognitive subscale, 11-item version (ADAS-cog11) and the Alzheimer’s Disease Co-operative Study–Activities of Daily Living, 23-item version (ADCS-ADL23) scale measured at baseline and every 3 months. MRI scans were undertaken at screening or baseline and at 3-month intervals. MRI acquisition protocol and parameters were standardized across sites and all data were centrally collected, quality-controlled, and analyzed blind by an imaging core lab (Bioclinica). Volumetric data were used to measure changes in whole brain volume (WBV, which provides a measure of the volume of grey and white matter), lateral ventricular volume (LVV), and other regional volumes including hippocampus, although only the global measures are reported in the present study. Baseline volumes were assessed using FreeSurfer 5.3, and volume change was assessed using Boundary Shift Integral and Tensor Based Morphometry for regional structures. Full details and study protocols for these two trials are available [[35, 36]].
The exposure-response analyses were conducted independently by ICPD and verified by TauRx. As a first step in the analysis, the concentration-response data were reviewed for ADAS-cog11 decline at week 65 in all patients receiving LMTM at a dose of 8 mg/day using a sigmoid Emax (maximum response) model not requiring assumptions regarding exposure subgroups. The model was fitted using covariates geographical region, CDR at baseline, co-medication status, and baseline ADAS-cog11. A 90% bootstrap confidence interval was also calculated.
(§2) Having shown a concentration-dependent response for cognitive decline, a mixed-effects model for repeated measures analysis was used to characterize further the relationship between each efficacy endpoint and parent MT plasma exposure (steady state Cmax,ss) according to the following formula: pharmacological activity∼plasma-level×visit+co-medication-status×visit+co-medication-status×plasma-level+geographical-region+CDR-at-baseline+baseline-score×visit
The following terms were categorical variables in the models: plasma exposure (Cmax,ss) (7 levels), visit (5 levels), co-medication status with AD drugs (2 levels), geographical region (2 levels), and CDR at baseline (3 levels). […]

[2] = tested on: patients with mild to moderate Alzheimer's disease; assay: ADCS-ADL23 change over 65 weeks by plasma exposure; type: in vivo, human; conditions: for ADCS-ADL Difference ± SEM: split by 8 mg/day Cmax,ss median
From the text: as §1, §2
(§3) The following terms were categorical variables in the models: plasma exposure (Cmax,ss) (7 levels), visit (5 levels), co-medication status with AD drugs (2 levels), geographical region (2 levels), and CDR at baseline (3 levels). For the longitudinal analyses, plasma level was described by two levels (above or below threshold).

[3] = tested on: patients with mild to moderate Alzheimer's disease; assay: MRI lateral ventricular volume (LVV) change over 65 weeks by plasma exposure; type: in vivo, human; conditions: for LVV Difference ± SEM: split by 8 mg/day Cmax,ss median
From the text: as §1, §2, §3

[4] = tested on: patients with mild to moderate Alzheimer's disease; assay: MRI whole brain volume (WBV) change over 65 weeks by plasma exposure; type: in vivo, human; conditions: for WBV Difference ± SEM: split by 8 mg/day Cmax,ss median
From the text: as §1, §2, §3

[5] = tested on: patients with mild to moderate Alzheimer's disease; assay: Hill equation concentration-response analysis (ADAS-cog11 and WBV); type: in vivo, human
From the text: In addition to the exposure-response analyses described above, a further standard pharmacological concentration-response analysis was undertaken using the Hill equation [40] applied to the ADAS-cog11 and whole brain volume data to characterize the overall response profile quantitatively and to investigate the lower concentration limit of the treatment effect. The Hill equation was applied under the assumption of non-cooperativity and was applied with an additional linear term to permit trends occurring at high concentrations to be included in the model. […] This was fitted separately for LMTM added to approved symptomatic treatments and for those who took the drug as monotherapy, with parameters estimated using a non-linear least squares estimator.
In order to relate Cmax,ss values to theoretical doses, a linear model was fitted to the mean plasma concentrations at the 8, 150, 200 and 250 mg/day doses: estimated dose=22.22×(Cmax, ss-0.016) where dose is in mg/day and Cmax,ss is ng/ml units.

Route of clearance = conditions: in vivo
[6] = tested on: tau transgenic mouse model for AD; design: method as in PMID 32091331; conditions: 5 and 15 mg/kg/day; cited from earlier work
[7] = LMTM 8 mg/day as add-on therapy, Cmax,ss above vs below 0.373 ng/ml
[8] = LMTM 8 mg/day as monotherapy, Cmax,ss above vs below 0.373 ng/ml
[9] = LMTM 8 mg/day, low Cmax add-on versus high Cmax monotherapy
[10] = all patients, high vs low exposure split by Cmax,ss 0.373 ng/ml, 65 weeks
[11] = patients receiving LMTM 8 mg/day, split by Cmax,ss 0.373 ng/ml, 65 weeks

For `CN(C)c1ccc2c(c1)Sc1cc(N(C)C)ccc1N2` [LMTM, leuco-methylthioninium bis(hydromethanesulphonate)], the “ADAS-cog11 Difference±SEM in change from baseline” value [1, 7] was “–3.52±0.78”, the “ADAS-cog11 Difference±SEM in change from baseline” value [1, 8] was “–2.60±1.16” and the “ADAS-cog Difference ± SEM” value ([1]; LMTM 8 mg/day as monotherapy) was -2.75 ± 1.09. For the same compound, the “ADAS-cog11 Difference±SEM in change from baseline” value [1, 9] was “–7.53±1.22”, the “ADAS-cog11 Difference±SEM in change from baseline” value [1, 10] was “–2.66±0.69” and the “ADAS-cog Difference ± SEM” value ([1]; all patients) was -1.91 ± 0.59. For the same compound, the “ADAS-cog11 Difference±SEM in change from baseline” value [1, 11] was “–3.41±0.76”, the “ADCS-ADL23 Difference±SEM in change from baseline” value [2, 7] was 1.32±1.04 and the “ADCS-ADL23 Difference±SEM in change from baseline” value [2, 8] was 0.46±1.47. For the same compound, the “ADCS-ADL Difference ± SEM” value ([2]; LMTM 8 mg/day as monotherapy) was 0.52 ± 1.38, the “ADCS-ADL23 Difference±SEM in change from baseline” value [2, 9] was 6.14±1.64 and the “ADCS-ADL23 Difference±SEM in change from baseline” value [2, 10] was 0.54±0.94. For the same compound, the “ADCS-ADL Difference ± SEM” value ([2]; all patients) was 0.21 ± 0.81, the “ADCS-ADL23 Difference±SEM in change from baseline” value [2, 11] was 1.22±1.01 and the “LVV Difference±SEM in change from baseline” value (from here on “LVV Difference±SEM in change”) [3, 7] was “–1.81±0.39 cm^3”. The “LVV Difference±SEM in change” value [3, 8] was “–1.60±0.46 cm^3”, the “LVV Difference ± SEM” value ([3]; LMTM 8 mg/day as monotherapy) was -0.82 ± 0.44 cm3 and the “LVV Difference±SEM in change” value [3, 9] was “–3.15±0.62 cm^3”. For the same compound, the “LVV Difference±SEM in change” value [3, 10] was “–1.52±0.34 cm^3”, the “LVV Difference ± SEM” value ([3]; all patients) was -0.80 ± 0.30 cm3 and the “LVV Difference±SEM in change” value [3, 11] was “–1.76±0.38 cm^3”. The “WBV Difference±SEM in change from baseline” value (shortened to “WBV Difference±SEM in change”) [4, 7] was 4.69±1.21 cm^3, the “WBV Difference ± SEM” value ([4]; LMTM 8 mg/day as add-on therapy) was 4.02 ± 1.17 cm3 and the “WBV Difference±SEM in change” value [4, 8] was 2.76±1.66 cm^3. The “WBV Difference ± SEM” value ([4]; LMTM 8 mg/day as monotherapy) was 1.07 ± 1.58 cm3, the “WBV Difference±SEM in change” value [4, 9] was 11.54±1.87 cm^3 and the “WBV Difference±SEM in change” value [4, 10] was 3.55±1.10 cm^3. The “WBV Difference ± SEM” value ([4]; all patients) was 2.47 ± 0.92 cm3, the “WBV Difference±SEM in change” value [4, 11] was 4.39±1.18 cm^3 and the “maximum predicted pharmacological activity as add-on therapy relative to monotherapy” value ([5]; Hill equation analysis) was “about half”. For the same compound, the “plasma concentrations at which treatment effects reach a plateau” value ([5]; Hill equation estimates) was 0.9 to 4.1 ng/mL, the “theoretical doses corresponding to the plateau” value ([5]; Hill equation estimates) was 16 to 80 mg/day and the “lower limit of drug activity (plasma Cmax,ss)” value ([5]; monotherapy and add-on therapy, cognitive decline and whole brain atrophy) was “approximately 0.29 ng/ml”. The “share of clearance via the kidneys” value (Route of clearance) was 70%, the “Complex IV activity in brain mitochondria” value [6] was “increase Complex IV activity in brain mitochondria” and the “acetylcholine levels in hippocampus” value [6] was “increase acetylcholine levels in hippocampus”. The “choline acetyltransferase activity in basal forebrain” value [6] was “restore choline acetyltransferase activity in basal forebrain” and the “glutamate release from brain synaptosomes” value [6] was “reverse impairment in glutamate release from brain synaptosomes”.
